Read-outs that look alike come from different tables or passages of the source.
Experiments:
[1] = test system: normal mice; assay: in vivo; settings: method of test example 1; for LD50 vALUE: Table 2, formula II compounds; for LD50: Table 1, formula I compounds
Experimental: Kunming mice with 4˜6 weeks old and 18 g˜22 g by weight were taken, 50% males and 50% females. […] The condition of mortality and toxicity were observed after administration. Totally observing for 14 days, LD50 value was calculated using Bliss method according to the mortality.

[2] = test system: Lung cancer A549; assay: MTT cytotoxicity, lung cancer A549; settings: read-out: IC50 of anti-lung cancer A549, method of test example 2
Experimental: Cell morphologies were observed after being cultivated for 24 hours.

[3] = test system: Lung cancer H292; assay: MTT cytotoxicity, lung cancer H292; assay type: cell-based; settings: Lung cancer H292, MTT, n = 6; read-out: cytotoxicity IC50
[4] = test system: Testis cell ST; assay: MTT cytotoxicity, testis cell ST; assay type: cell-based; settings: n = 6
[5] = test system: gastric cancer MGC803; assay: MTT cytotoxicity, gastric cancer MGC803; assay type: cell-based; settings: n = 6
[6] = test system: Esophagus cancer ECA109; assay: MTT cytotoxicity, esophagus cancer ECA109; assay type: cell-based; settings: n = 6
[7] = Solubility in water; settings: compound of the example (salt form) in water
[8] = test system: colon cancer SW480; assay: MTT cytotoxicity, colon cancer SW480; assay type: cell-based; settings: colon cancer SW480, MTT, n = 6; read-out: cytotoxicity IC50

CCCC[NH][Pt]1([NH]CCCC)[O]C(=O)C(CCCC[N+](CC)(CC)CC)C(=O)[O]1 [Compound 67]
LD50 vALUE [1]: 0.802 mmol/kg | IC50 ([2]; Table 2, formula II compounds): 27 µM

CCN(CC)CCCCC1C(=O)[O][Pt]2([NH]CC3(CCOCC3)C[NH]2)[O]C1=O.O=P(O)(O)O [Compound 24, 2-(4-diethylaminobutyl)-malonate•cis-1,3-(2,2-(4-oxacyclohexyl))-propanediamine•platinum (II) phosphate]
IC50 [3]: 3 µM | IC50 [4]: 6 µM | IC50 [5]: 3 µM | IC50 [6]: 52 µM | solubility [7]: more than 300 mg/ml

CCN(C)CC(O)CCC1C(=O)[O][Pt][O]C1=O.NC1CCCCC1N (stereo not drawn) [Compound 54]
LD50 [1]: 0.792 mmol/kg

CN(C)CCCCC1C(=O)[O][Pt][O]C1=O.NCC1CCCN1 [Compound 48]
LD50 [1]: 0.831 mmol/kg | IC50 ([2]; Table 1, formula I compounds): 31 µM

O=C1[O][Pt]2([NH]C3CCCCC3[NH]2)[O]C(=O)C1CCCCN(C1CCCC1)C1CCCC1 (stereo not drawn) [Compound 42]
LD50 [1]: 0.826 mmol/kg | IC50 ([2]; Table 1, formula I compounds): 5 µM

CN(C)CCCCC1C(=O)[O][Pt][O]C1=O.NCC1CCCCN1 [Compound 49]
LD50 [1]: 0.817 mmol/kg | IC50 ([2]; Table 1, formula I compounds): 45 µM

CCN(CC)CCCCC1C(=O)[O][Pt]2([NH]CC[NH]2)[O]C1=O.Cc1ccc(S(=O)(=O)O)cc1 [Compound 17, 2-(4-diethylaminobutyl)-malonate•cis-(1,2-ethylenediamine) platinum (II) tosilate]
IC50 [3]: 4 µM | IC50 [8]: 7 µM | IC50 [4]: 16 µM | IC50 [5]: 5 µM | solubility [7]: more than 300 mg/ml

CN(CCCCC1C(=O)[O][Pt]2([NH]C3CCCCC3[NH]2)[O]C1=O)C(C)(C)C (stereo not drawn) [Compound 34]
LD50 [1]: 0.905 mmol/kg

CCN(CC)CCCCC1C(=O)[O][Pt][O]C1=O.NC1CC(O)C(O)CC1N [Compound 40]
LD50 [1]: 0.683 mmol/kg | IC50 ([2]; Table 1, formula I compounds): 21 µM

COC1CC(C)N(CCCCC2C(=O)[O][Pt][O]C2=O)C1C.NC1CCCCC1N (stereo not drawn) [Compound 39]
LD50 [1]: 0.711 mmol/kg | IC50 ([2]; Table 1, formula I compounds): 6 µM

2-(4-diethylaminobutyl)-malonate•cis-(2-aminomethyl-cyclopentylamine) platinum (II) acetate [Compound 27]
IC50 [3]: 4 µM | IC50 [4]: 13 µM | IC50 [5]: 5 µM | IC50 [6]: 54 µM

CCN(CC)CCCCC1C(=O)[O][Pt]2([NH]C3CCC3[NH]2)[O]C1=O.O=C(O)CCC(=O)O (racemic) [Compound 15, 2-(4-diethylaminobutyl)-malonate•cis-(1,2-trans-cyclobutanediamine) platinum (II) succinate]
IC50 [3]: 10 µM | IC50 [8]: 18 µM | IC50 [5]: 3 µM

2-(4-diethylaminobutyl)-malonate•cis-ammonia•cyclopentylamine platinum (II) acetate [Compound 26]
IC50 [3]: 4 µM | IC50 [4]: 11 µM | IC50 [5]: 1 µM | IC50 [6]: 91 µM

CN(CCCCC1C(=O)[O][Pt]2([NH]C3CCCCC3[NH]2)[O]C1=O)C1CCCC1 (stereo not drawn) [Compound 43]
LD50 [1]: 0.841 mmol/kg | IC50 ([2]; Table 1, formula I compounds): 5 µM

CCCCN(C)CCCCC1C(=O)[O][Pt]2([NH][C@H]3CCCC[C@H]3[NH]2)[O]C1=O (stereo partly drawn) [Compound 60]
LD50 [1]: 0.875 mmol/kg | IC50 ([2]; Table 1, formula I compounds): 9 µM

C[N+](C)(C)CCCCC1C(=O)[O][Pt][O]C1=O.Cc1ccc(S(=O)(=O)[O-])cc1.N[C@@H]1CCCC[C@H]1N [Compound 29, 2-(4-trimethylaminobutyl)-malonate•cis-(1,2-trans-cyclohexanediamine) platinum(II) tosilate]
IC50 [3]: 7 µM | IC50 [4]: 8 µM | IC50 [5]: 2 µM | IC50 [6]: 25 µM

CCCC[N+](C)(C)CCCCC1C(=O)[O][Pt]2([NH][C@H]3CC(OC)C(OC)C[C@H]3[NH]2)[O]C1=O (stereo partly drawn) [Compound 65]
LD50 vALUE [1]: 0.615 mmol/kg | IC50 ([2]; Table 2, formula II compounds): 16 µM

CC1CC(C)[NH][Pt]2([NH]1)[O]C(=O)C(CCCCN(C)C)C(=O)[O]2 (stereo not drawn) [Compound 45]
LD50 [1]: 0.834 mmol/kg | IC50 ([2]; Table 1, formula I compounds): 31 µM

CN(CCCCC1C(=O)[O][Pt]2([NH]C3CCCCC3[NH]2)[O]C1=O)Cc1ccc(Cl)cc1 (stereo not drawn) [Compound 58]
LD50 [1]: 0.607 mmol/kg | IC50 ([2]; Table 1, formula I compounds): 37 µM

2-(4-diethylaminobutyl)-malonate•cis-dicyclopentylamine platinum (II) acetate [Compound 25]
IC50 [3]: 6 µM | IC50 [4]: 7 µM | IC50 [5]: 3 µM | IC50 [6]: 29 µM

CN(CO)CCCCC1C(=O)[O][Pt]([NH2])([NH]C2CCC2)[O]C1=O (stereo not drawn) [Compound 52]
LD50 [1]: 0.687 mmol/kg | IC50 ([2]; Table 1, formula I compounds): 41 µM

O=C1[O][Pt]2([NH]C3CCCCC3[NH]2)[O]C(=O)C1CCCCN1CCOCC1 (stereo not drawn) [Compound 51]
LD50 [1]: 0.654 mmol/kg | IC50 ([2]; Table 1, formula I compounds): 26 µM

O=C1[O][Pt]([NH]C2CCCC2)([NH]C2CCCC2)[O]C(=O)C1CCCCN(C1CC1)C1CC1 [Compound 56]
LD50 [1]: 0.816 mmol/kg | IC50 ([2]; Table 1, formula I compounds): 57 µM

CCCN.CCN(CC)CCCCC1C(=O)[O][Pt][O]C1=O.NC1CC=NC1 [Compound 63]
LD50 [1]: 0.804 mmol/kg | IC50 ([2]; Table 1, formula I compounds): 25 µM

CCN(C)CC(CCC1C(=O)[O][Pt][O]C1=O)OC.NC1CCCCC1N (stereo not drawn) [Compound 31]
LD50 [1]: 0.732 mmol/kg | IC50 ([2]; Table 1, formula I compounds): 5 µM

O=C1[O][Pt]2([NH]C3CCCCC3[NH]2)[O]C(=O)C1CCCCN1CC=CC1 (stereo not drawn) [Compound 35]
LD50 [1]: 0.762 mmol/kg | IC50 ([2]; Table 1, formula I compounds): 4 µM

2-(2-diethylaminobutyl)-malonate•cis-1,2-(1,2-dihydroxymethyl)-ethylenediamine platinum (II) phosphate [Compound 20]
IC50 [3]: 5 µM | IC50 [4]: 11 µM | IC50 [5]: 4 µM | IC50 [6]: 17 µM

CC[N+](CC)(CC)CCCCC1C(=O)[O][Pt]([NH2])([NH2])[O]C1=O [Compound 66]
LD50 vALUE [1]: 0.677 mmol/kg | IC50 ([2]; Table 2, formula II compounds): 20 µM

2-(4-diethylaminobutyl)-malonate•cis-(1, 2-trans-cyclopropanediamine) platinum (II) phosphate [Compound 16]
IC50 [3]: 5 µM | IC50 [8]: 13 µM | IC50 [4]: 10 µM | IC50 [5]: 4 µM

CN(CCCCC1C(=O)[O][Pt]([NH2])([NH2])[O]C1=O)Cc1ccc(Cl)cc1F [Compound 59]
LD50 [1]: 0.598 mmol/kg | IC50 ([2]; Table 1, formula I compounds): 68 µM

CCN(CC)CCCCC1C(=O)[O][Pt]([NH]C2CCCC2)([NH]C2CCCC2)[O]C1=O [Compound 55]
LD50 [1]: 0.852 mmol/kg | IC50 ([2]; Table 1, formula I compounds): 61 µM

CN(C)CCCCC1C(=O)[O][Pt][O]C1=O.NCC1CN1 [Compound 46]
LD50 [1]: 0.823 mmol/kg | IC50 ([2]; Table 1, formula I compounds): 27 µM

CN(C)CCCCC1C(=O)[O][Pt][O]C1=O.NCC1CCN1 [Compound 47]
LD50 [1]: 0.815 mmol/kg | IC50 ([2]; Table 1, formula I compounds): 23 µM

NC1CCCCC1N.O=C1[O][Pt][O]C(=O)C1CCC(Cl)CN1CCCCC1 (stereo not drawn) [Compound 36]
LD50 [1]: 0.713 mmol/kg | IC50 ([2]; Table 1, formula I compounds): 7 µM

CC1CC(Cl)C(C)N1CCCCC1C(=O)[O][Pt]2([NH]C3CCCCC3[NH]2)[O]C1=O (stereo not drawn) [Compound 41]
LD50 [1]: 0.675 mmol/kg | IC50 ([2]; Table 1, formula I compounds): 13 µM

CC1CCN(CCCCC2C(=O)[O][Pt]3([NH]C4CCCCC4[NH]3)[O]C2=O)CC1 (stereo not drawn) [Compound 37]
LD50 [1]: 0.825 mmol/kg | IC50 ([2]; Table 1, formula I compounds): 9 µM

CN(C)CCCCC1C(=O)[O][Pt][O]C1=O.NC1CCC(N)C1 [Compound 44]
LD50 [1]: 0.857 mmol/kg | IC50 ([2]; Table 1, formula I compounds): 24 µM

CCN(CC)CCCCC1C(=O)[O][Pt][O]C1=O.NC1CCC(N)CC1.O=P(O)(O)O [Compound 23, 2-(4-diethylaminobutyl)-malonate•cis-1,4-cyclohexanediamine platinum (II) phosphate]
IC50 [3]: 14 µM | IC50 [4]: 8 µM | IC50 [5]: 5 µM | IC50 [6]: 66 µM | solubility [7]: more than 300 mg/ml

CN(CCCCC1C(=O)[O][Pt]2([NH]C3CCCCC3[NH]2)[O]C1=O)Cc1ccccc1 (stereo not drawn) [Compound 57]
LD50 [1]: 0.613 mmol/kg

CCN(CC)CCCCC1C(=O)[O][Pt]2([NH]CCC[NH]2)[O]C1=O.O=P(O)(O)O [Compound 18, 2-(4-diethylaminobutyl)-malonate•cis-(1,3-propanediamine) platinum (II) phosphate]
IC50 [3]: 8 µM | IC50 [8]: 14 µM | IC50 [4]: 22 µM | IC50 [5]: 2 µM | solubility [7]: more than 300 mg/ml

CC1CCCN1CCCCC1C(=O)[O][Pt]2([NH]C3CCCCC3[NH]2)[O]C1=O (stereo not drawn) [Compound 38]
LD50 [1]: 0.818 mmol/kg | IC50 ([2]; Table 1, formula I compounds): 6 µM

CCN(CC)CCCCC1C(=O)[O][Pt]2([NH]CC(CO)(CO)C[NH]2)[O]C1=O.O=P(O)(O)O [Compound 21, 2-(4-diethylaminobutyl)-malonate•cis-1,3-(2,2-hydroxymethyl)-propanediamine platinum (II) phosphate]
IC50 [3]: 12 µM | IC50 [4]: 13 µM | IC50 [5]: 5 µM | solubility [7]: more than 300 mg/ml

CCN(C)CC(CCC1C(=O)[O][Pt][O]C1=O)OC.N.N (stereo not drawn) [Compound 30]
LD50 [1]: 0.759 mmol/kg | IC50 ([2]; Table 1, formula I compounds): 12 µM

CCN(CC)CCCCC1C(=O)[O][Pt]2([NH]CCCC[NH]2)[O]C1=O.O=P(O)(O)O [Compound 19, 2-(4-diethylaminobutyl)-malonate•cis-(1,4-butanediamine) platinum (II) phosphate]
IC50 [3]: 6 µM | IC50 [8]: 23 µM | IC50 [4]: 13 µM | IC50 [5]: 5 µM | solubility [7]: more than 300 mg/ml

CC1CCN(CCCCC2C(=O)[O][Pt]3([NH]C4CC=CCC4[NH]3)[O]C2=O)C1 (stereo not drawn) [Compound 33]
LD50 [1]: 0.826 mmol/kg | IC50 ([2]; Table 1, formula I compounds): 7 µM

From patent US9725477B2, “Platinum compounds of malonic acid derivative having leaving group containing amino or alkylamino” (BEIJING FSWELCOME TECHNOLOGY DEVELOPMENT CO., LTD, priority 2012, dated 2017)
